Test results as given in patent publication US10807993B2, “Dihydrochromene derivatives” (Sumitomo Dainippon Pharma Co., Ltd., priority 2018, dated 2020).
pIC50: −log10 of the molar value. Read-outs that look alike come from different tables or passages of the source.

Columns and labels:
[1] = test system: HT-29 cells; experiment: Inhibition test for sphere formation assay of cancer cells; type: cell-based; details: for pIC50: sphere culture (ultra-low attachment, serum-free), 4 days, CellTiter-Glo, read-out: Sphere IC50 value (concentration for 50% inhibition of cell proliferation); for activity for inhibiting cell proliferation in the sphere culture condition: summary in words
Description: Reliable methods established for measuring the self-renewal ability of cells which is one of the CSC's properties include a method for measuring the sphere-forming ability of cancer cells in non-adherent condition in the absence of serum (Cancer Res 65, 5506-5511 (2005)). HT-29 cells were available from American Type Culture Collection (ATCC). HT-29 cells were cultured at 37° C. under 5% CO2 using the McCoy's 5a medium containing 10% fetal bovine serum (FBS) and 1% penicillin/streptomycin. HT-29 cells were seeded in a 384 Well Black Clear Bottom Ultra-Low Attachment Microplate (Corning Cat. No. 3827) in an amount of 350-800 cells/well using the DMEM/F12 medium containing 2% B27 supplement (GIBCO), 20 ng/mL epidermal growth factor (EGF) (peprotech), 10 ng/mL basic fibroblast growth factor (bFGF) (peprotech), 5 μg/mL insulin (Sigma), and 1% penicillin/streptomycin. Each test compound was added into each well to adjust the final concentration of DMSO to 0.1%, and the cells were cultured for 4 days. The number of viable cells in each well was then measured with CellTiter-Glo™ Luminescent Cell Viability Assay (Promega) to calculate the concentration of each test compound for 50% inhibition of cell proliferation (Sphere IC50 value; […])
The experiment of Test 1 was performed for each compound of each Example. The concentration of each test compound for 50% inhibition of cell proliferation (Sphere IC50 value; μmol/L) is shown in the following Table.

[2] = molecular target: hERG (Homo sapiens (Human), UniProt Q12809); experiment: Test for evaluating hERG inhibition (QPatch HT, CHO cell strain stably expressing hERG); details: for hERG/HT-29: hERG IC50 (Test 2) divided by HT-29 sphere IC50 (Test 1); for deviation between the concentration of inhibiting 50% cell proliferation and the concentration of inhibiting 50% hERG current: summary in words of hERG/HT-29; for IC50: read-out: Binding inhibition (IC50, μM), concentration at which 50% of the hERG current was inhibited, CHO cells stably expressing hERG, QPatch HT
Sequence of hERG (Q12809 whole entry): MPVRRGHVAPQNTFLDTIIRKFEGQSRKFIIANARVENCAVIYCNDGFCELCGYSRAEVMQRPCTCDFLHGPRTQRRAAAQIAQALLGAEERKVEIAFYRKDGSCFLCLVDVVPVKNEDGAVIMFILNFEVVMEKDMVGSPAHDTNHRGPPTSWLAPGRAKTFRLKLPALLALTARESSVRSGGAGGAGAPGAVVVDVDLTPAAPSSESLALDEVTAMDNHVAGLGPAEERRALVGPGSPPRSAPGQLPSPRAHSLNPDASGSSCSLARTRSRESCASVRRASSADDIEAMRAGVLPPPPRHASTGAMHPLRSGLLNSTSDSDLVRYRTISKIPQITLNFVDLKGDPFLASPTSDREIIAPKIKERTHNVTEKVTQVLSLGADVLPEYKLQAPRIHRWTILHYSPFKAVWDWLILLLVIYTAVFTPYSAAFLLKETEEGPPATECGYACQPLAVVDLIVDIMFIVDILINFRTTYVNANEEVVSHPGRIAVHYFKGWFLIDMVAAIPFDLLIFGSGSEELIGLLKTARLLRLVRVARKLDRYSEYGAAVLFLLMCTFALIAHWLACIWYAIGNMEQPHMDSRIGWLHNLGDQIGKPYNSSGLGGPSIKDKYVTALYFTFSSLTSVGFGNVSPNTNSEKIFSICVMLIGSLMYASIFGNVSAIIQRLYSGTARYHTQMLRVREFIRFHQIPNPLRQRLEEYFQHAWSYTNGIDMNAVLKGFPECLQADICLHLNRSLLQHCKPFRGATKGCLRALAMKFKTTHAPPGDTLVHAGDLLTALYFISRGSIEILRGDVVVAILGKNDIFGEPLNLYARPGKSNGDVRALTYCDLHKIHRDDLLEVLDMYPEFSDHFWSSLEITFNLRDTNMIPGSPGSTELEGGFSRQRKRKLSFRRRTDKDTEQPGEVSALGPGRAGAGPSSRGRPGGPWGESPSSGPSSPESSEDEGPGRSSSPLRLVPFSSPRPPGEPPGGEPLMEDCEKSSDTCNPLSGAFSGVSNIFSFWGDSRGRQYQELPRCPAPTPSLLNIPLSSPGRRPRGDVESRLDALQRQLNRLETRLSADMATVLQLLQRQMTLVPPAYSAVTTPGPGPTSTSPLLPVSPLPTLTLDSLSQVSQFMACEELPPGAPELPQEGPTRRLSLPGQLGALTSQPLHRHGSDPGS
Description: To a cultured CHO cell strain which stably expresses hERG was added each test compound to adjust the final concentration of DMSO to 0.0135 to 0.5%. The hERG current was measured with QPatch HT (Sophion Inc.), and the concentration at which 50% of the hERG current was inhibited by each test compound (IC50 value; μM) was calculated.
The compounds of Examples were tested according to Test 2. And, the hERG/HT-29 was calculated by dividing the compound concentration obtained in Test 2 (50% of the hERG current is inhibited) by the compound concentration obtained in Test 1 (50% of the proliferation of HT-29 cells is inhibited).

SMILES	pIC50 [1]	pIC50 ([1]; Homo sapiens, 96 h)	pIC50 [2]	hERG/HT-29 [2]	deviation between the concentration of inhibiting 50% cell proliferation and the concentration of inhibiting 50% hERG current [2]	IC50 [2]	activity for inhibiting cell proliferation in the sphere culture condition [1]
Cc1nccn1CC(=O)N1CCC2(CC1)COC1c3cc(Cl)ccc3OC(C)(C)C1C2 (racemic) [Example 1, Racemate of 1-[(4′aS,10′bS)-9′-chloro-5′,5′-dimethyl-4′a,10′b-dihydro-2′H,4′H,5′H-spiro[piperidine-4,3′-pyrano[3,2-c][1]benzopyran]-1-yl]-2-(2-methyl-1H-imidazol-1-yl)ethan-1-one and 1-[(4′aR,10′bR)-9′-chloro-5′,5′-dimethyl-4′a,10′b-dihydro-2′H, 4′H, 5′H-spiro[piperidine-4,3′-pyrano[3,2-c][1]benzopyran]-1-yl]-2-(2-methyl-1H-imidazol-1-yl)ethan-1-one]	–	7.10	> 6.52	–	–	–	–
Cc1nc[nH]c1CN1CCC2(CC1)COC1c3ccc(Cl)cc3OC(C)(C)C1C2 (racemic) [Example 18, Racemate of (4′aR,10′bR)-8′-chloro-5′,5′-dimethyl-1-[(4-methyl-1H-imidazol-5-yl)methyl]-4′a,10′b-dihydro-2′H,4′H,5′H-spiro[piperidine-4,3′-pyrano[3,2-c][1]benzopyran] and (4′aS,10′bS)-8′-chloro-5′,5′-dimethyl-1-[(4-methyl-1H-imidazol-5-yl)methyl]-4′a,10′b-dihydro-2′H,4′H,5′H-spiro[piperidine-4,3′-pyrano[3,2-c][1]benzopyran]]	–	7.70	6.22	30	–	–	–
CC1(C)Oc2cc(Cl)ccc2C2OCC3(CCN(CCn4ccnc4)CC3)CC21 (racemic) [Example 38, Racemate of (4′aR,10′bR)-8′-chloro-1-[2-(1H-imidazol-1-yl)ethyl]-5′,5′-dimethyl-4′a,10′b-dihydro-2′H,4′H,5′H-spiro[piperidine-4,3′-pyrano[3,2-c][1]benzopyran] and (4′aS,10′bS)-8′-chloro-1-[2-(1H-imidazol-1-yl)ethyl]-5′,5′-dimethyl-4′a,10′b-dihydro-2′H,4′H,5′H-spiro[piperidine-4,3′-pyrano[3,2-c][1]benzopyran]]	–	> 8.00	6.10	>80	good deviation	–	–
Cc1nc[nH]c1CN1CCC2(CC1)COC1c3ccc(Cl)cc3OCC1C2 (racemic) [Example 64, Racemate of (4′aS,10′bR)-8′-chloro-1-[(4-methyl-1H-imidazol-5-yl)methyl]-4′a,10′b-dihydro-2′H,4′H,5′H-spiro[piperidine-4,3′-pyrano[3,2-c][1]benzopyran] and (4′aR,10′bS)-8′-chloro-1-[(4-methyl-H-imidazol-5-yl)methyl]-4′a,10′b-dihydro-2′H,4′H,5′H-spiro[piperidine-4,3′-pyrano[3,2-c][1]benzopyran]]	–	7.15	6.40	5.71	–	–	–
Cc1nc[nH]c1CN1CCC2(CC1)COC1c3ccc(Cl)cc3OCC1C2 (single isomer, unassigned) [Example 64a]	> 8.00	–	–	>60	good deviation	0.6 µM	potent activity
Cc1nc[nH]c1CN1CCC2(CC1)COC1c3ccc(Cl)cc3OCC1C2 (single isomer, unassigned) [Example 64b]	7.30	–	–	–	–	< 0.3 µM	–
Cc1nccn1CC(=O)N1CCC2(CC1)COC1c3cccc(Cl)c3OC(C)(C)C1C2 (centres unmarked) [Example 6]	6.21	–	–	–	–	< 0.3 µM	–
Cc1nc[nH]c1CN1CCC2(CC1)COC1c3ccc(Cl)cc3OC(C)(C)C1C2 (centres unmarked) [Example 20]	> 8.00	–	–	>140	good deviation	1.4 µM	potent activity
Cc1nc[nH]c1CN1CCC2(CC1)COC1c3cc(F)ccc3OC(C)(C)C1C2 (centres unmarked) [Example 21]	6.68	–	–	7.14	–	1.5 µM	–
Cc1nc[nH]c1CN1CCC2(CC1)COC1c3cc(F)ccc3OC(C)(C)C1C2 (centres unmarked) [Example 22]	6.62	–	–	6.67	–	1.6 µM	–
Cc1nc[nH]c1CN1CCC2(CC1)COC1c3cc(F)ccc3OC(C)(C)C1C2 (centres unmarked) [Example 23]	7.22	–	–	23.3	–	1.4 µM	–
Cc1nc[nH]c1CN1CCC2(CC1)COC1c3cc(Cl)ccc3OC(C)(C)C1C2 (centres unmarked) [Example 24]	7.05	–	–	42.2	–	3.8 µM	–
Cc1nc[nH]c1CN1CCC2(CC1)COC1c3cc(Cl)ccc3OC(C)(C)C1C2 (centres unmarked) [Example 25]	7.15	–	–	5.7	–	0.4 µM	–
Cc1nc[nH]c1CN1CCC2(CC1)COC1c3cc(Cl)ccc3OC(C)(C)C1C2 (centres unmarked) [Example 26]	> 8.00	–	–	>60	good deviation	0.6 µM	potent activity
Cc1nc[nH]c1CN1CCC2(CC1)COC1c3cccc(Cl)c3OC(C)(C)C1C2 (centres unmarked) [Example 27]	6.46	–	–	1.14	–	0.4 µM	–
Cn1cncc1CN1CCC2(CC1)COC1c3cccc(Cl)c3OC(C)(C)C1C2 (centres unmarked) [Example 34]	> 8.00	–	–	>140	good deviation	1.4 µM	potent activity
CC1(C)Oc2ccc(F)cc2C2OCC3(CCN(CCn4ccnc4)CC3)CC21 (centres unmarked) [Example 39]	> 8.00	–	–	>100	good deviation	1 µM	potent activity
Cc1nccn1CCN1CCC2(CC1)COC1c3cc(Cl)ccc3OC(C)(C)C1C2 (centres unmarked) [Example 46]	–	–	–	>120	good deviation	1.2 µM	–
CC1(C)Oc2cc(Cl)ccc2C2OCC3(CCN(CCn4ccnc4CCN)CC3)CC21 (centres unmarked) [Example 62]	–	–	–	–	–	6.3 µM	–

More lines, main results first:

pIC50 [1]	SMILES	pIC50 ([1]; Homo sapiens, 96 h)	pIC50 [2]	hERG/HT-29 [2]	deviation between the concentration of inhibiting 50% cell proliferation and the concentration of inhibiting 50% hERG current [2]	IC50 [2]	activity for inhibiting cell proliferation in the sphere culture condition [1]
6.51	Cc1nccn1CC(=O)N1CCC2(CC1)COC1c3cc(Cl)ccc3OC(C)(C)C1C2 (single isomer, unassigned) [Example 4]	–	–	–	–	< 0.3 µM	–
6.62	Cc1nccn1CC(=O)N1CCC2(CC1)COC1c3cc(F)ccc3OC(C)(C)C1C2 (centres unmarked) [Example 2]	–	–	–	–	< 0.3 µM	–
6.39	Cc1nccn1CC(=O)N1CCC2(CC1)COC1c3ccc(Cl)cc3OC(C)(C)C1C2 (centres unmarked) [Example 5]	–	–	–	–	< 0.3 µM	–
7.05	Cc1nccn1CC(=O)N1CCC2(CC1)COC1c3cc(Br)ccc3OC(C)(C)C1C2 (centres unmarked) [Example 7]	–	–	–	–	< 0.3 µM	–
6.11	Cc1nccn1CC(=O)N1CCC2(CC1)COC1c3cccc(Br)c3OC(C)(C)C1C2 (centres unmarked) [Example 9]	–	–	–	–	< 0.3 µM	–
6.62	Cc1nccn1CC(=O)N1CCC2(CC1)COC1c3cc(N=[N+]=[N-])ccc3OC(C)(C)C1C2 (centres unmarked) [Example 10]	–	–	–	–	< 0.3 µM	–
5.36	CC1(C)Oc2ccc(Cl)cc2C2OCC3(CCN(C(=O)Cn4cnc(CF)c4)CC3)CC21 (centres unmarked) [Example 16]	–	–	–	–	–	–
7.05	CCc1nc(C)c(CN2CCC3(CC2)COC2c4cc(Cl)ccc4OC(C)(C)C2C3)[nH]1 (centres unmarked) [Example 28]	–	–	–	–	–	–
6.09	CC1(C)Oc2ccc(Cl)cc2C2OCC3(CCN(Cc4c[nH]cn4)CC3)CC21 (centres unmarked) [Example 29]	–	–	3.21	–	2.6 µM	–
5.64	Cc1nc(CN2CCC3(CC2)COC2c4cc(Cl)ccc4OC(C)(C)C2C3)c[nH]1 (centres unmarked) [Example 30]	–	–	7.46	–	1.7 µM	–
7.22	Cn1cncc1CN1CCC2(CC1)COC1c3cc(F)ccc3OC(C)(C)C1C2 (centres unmarked) [Example 31]	–	–	23.3	–	1.4 µM	–
6.68	CC1(C)Oc2ccc(Cl)cc2C2OCC3(CCN(Cc4ncc[nH]4)CC3)CC21 (centres unmarked) [Example 35]	–	–	16.7	–	3.5 µM	–
7.40	Cn1ccnc1CN1CCC2(CC1)COC1c3cc(Cl)ccc3OC(C)(C)C1C2 (centres unmarked) [Example 36]	–	–	–	–	–	–
> 8.00	CC1(C)Oc2ccc(F)cc2C2OCC3(CCN(CCn4ccnc4CO)CC3)CC21 (centres unmarked) [Example 52]	–	–	–	–	–	potent activity
> 8.00	CC1(C)Oc2ccc(Cl)cc2C2OCC3(CCN(CCn4ccnc4CO)CC3)CC21 (centres unmarked) [Example 53]	–	–	–	–	–	potent activity
6.01	COC(=O)c1cn(CCN2CCC3(CC2)COC2c4cc(Cl)ccc4OC(C)(C)C2C3)cn1 (centres unmarked) [Example 59]	–	–	–	–	–	–
